Laboratory results: PubChem BioAssay (NCI)
Several values for one entry are separate records, joined by “and”; a condition that tells them apart may be missing. Equal values may be shown once.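 Exposure lasted 48 hours, with cells grown in 96-well plates and compounds tested at five concentrations. At the TGI there is no net growth.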

Key:
Assay in all cases: growth of human tumour cells (NCI), 48 h
CCRF-CEM leukemia = tested on: CCRF-CEM leukemia
SK-MEL-28 melanoma = tested on: SK-MEL-28 melanoma
OVCAR-8 ovarian = tested on: OVCAR-8 ovarian
MDA-MB-435 = tested on: MDA-MB-435
SR leukemia = tested on: SR leukemia
KM12 colon = tested on: KM12 colon
HT29 colon = tested on: HT29 colon
UO-31 renal = tested on: UO-31 renal
HOP-62 NSCLC = tested on: HOP-62 NSCLC
A549 NSCLC = tested on: A549 NSCLC
SK-OV-3 ovarian = tested on: SK-OV-3 ovarian
786-0 renal = tested on: 786-0 renal
PC-3 prostate = tested on: PC-3 prostate
NCI-H460 lung = tested on: NCI-H460 lung
SNB-19 CNS = tested on: SNB-19 CNS
NCI/ADR-RES ovarian = tested on: NCI/ADR-RES ovarian
SF-268 CNS = tested on: SF-268 CNS
OVCAR-5 ovarian = tested on: OVCAR-5 ovarian
NCI-H522 lung = tested on: NCI-H522 lung

| Structure (SMILES) | TGI (CCRF-CEM leukemia) | TGI (SK-MEL-28 melanoma) | TGI (OVCAR-8 ovarian) | TGI (MDA-MB-435) | TGI (SR leukemia) | TGI (KM12 colon) | TGI (HT29 colon) | TGI (UO-31 renal) | TGI (HOP-62 NSCLC) | TGI (A549 NSCLC) | TGI (SK-OV-3 ovarian) | TGI (786-0 renal) | TGI (PC-3 prostate) | TGI (NCI-H460 lung) | TGI (SNB-19 CNS) | TGI (NCI/ADR-RES ovarian) | TGI (SF-268 CNS) | TGI (OVCAR-5 ovarian) | TGI (NCI-H522 lung) |
| --- | --- | --- | --- | --- | --- | --- | --- | --- | --- | --- | --- | --- | --- | --- | --- | --- | --- | --- | --- |
| O=C1/C(=C/c2ccc(Cl)cc2)CSc2ccccc21 | 9.26 µM | 44.1 µM | > 100 µM | 20.7 µM | > 100 µM | > 100 µM | 49.6 µM | 36.1 µM | 63.9 µM | > 100 µM | > 100 µM | 39.3 µM | 44.5 µM | > 100 µM | 39.4 µM | 34.5 µM | 73 µM |  |  |
| C=CCOc1ccc(C2C(C(=O)OCC)C(=O)CC(C)(O)C2C(=O)OCC)cc1OC (stereo not drawn) | > 100 µM | > 100 µM | > 100 µM | > 100 µM | > 100 µM | > 100 µM | > 100 µM | > 100 µM | > 100 µM | > 100 µM |  | > 100 µM | > 100 µM | > 100 µM | > 100 µM | > 100 µM | > 100 µM | > 100 µM | > 100 µM |
| CN(C)CCOC1(Cc2ccc(F)cc2)CCC(C(C)(C)C)CC1 (stereo not drawn) | 9.82 µM and 12.9 µM | 14.7 µM and 12 µM | 25.1 µM and 26.9 µM | 15 µM and 12.3 µM | 8.37 µM and 6.34 µM | 19.3 µM and 18.1 µM | 9.5 µM and 8.3 µM | 19.2 µM and 18.2 µM | 19.3 µM and 18.8 µM | 22 µM and 25.3 µM | 27.7 µM and 28.7 µM | 15.9 µM and 11.7 µM | 17.4 µM and 19 µM | 11.1 µM and 7.09 µM | 24.6 µM and 19.4 µM | 24.2 µM and 27.7 µM | 27.2 µM and 28 µM | 21 µM and 20.5 µM | 14.2 µM and 23.5 µM |
| O=C1O[C@H](c2ccc3c(c2)OCO3)[C@H]2CO[C@@H](c3ccc4c(c3)OCO4)[C@@H]12 |  | > 100 µM | > 100 µM | > 100 µM | > 100 µM | > 100 µM | > 100 µM | > 100 µM | > 100 µM | > 100 µM | > 100 µM | > 100 µM | > 100 µM | > 100 µM | > 100 µM | > 100 µM | > 100 µM | > 100 µM | > 100 µM |
| CCOC(=O)NC(Nc1cccc(C(F)(F)F)c1)(C(F)(F)F)C(F)(F)F | > 100 µM | > 100 µM | > 100 µM | > 100 µM | > 100 µM | > 100 µM | > 100 µM | > 100 µM | > 100 µM | > 100 µM | > 100 µM | > 100 µM | > 100 µM | > 100 µM | > 100 µM | > 100 µM | > 100 µM | > 100 µM | > 100 µM |
| CSc1cnc2ccccc2c1SC1CN(Cc2ccccc2)c2ccccc2C1=O (stereo not drawn) | > 100 µM | > 100 µM |  | > 100 µM | > 100 µM | > 100 µM | > 100 µM | > 100 µM | > 100 µM | > 100 µM | > 100 µM | > 100 µM | > 100 µM | > 100 µM | > 100 µM | > 100 µM | > 100 µM | > 100 µM | > 100 µM |
| O=C(O)c1ccc(OCc2nc3cc(C(F)(F)F)ccc3nc2-c2ccccc2)cc1 | > 100 µM | > 100 µM | > 100 µM | > 100 µM | > 100 µM | > 100 µM | > 100 µM | 39 µM | > 100 µM | > 100 µM |  | > 100 µM | > 100 µM | > 100 µM | > 100 µM | > 100 µM | > 100 µM | > 100 µM | > 100 µM |
| C=C([C@@]1(O)C[C@H]2[C@H](CCC2(OC)OC)[C@@H]2c3ccccc3O[C@@H]21)[Si](C)(C)C |  | > 100 µM | > 100 µM | > 100 µM | > 100 µM | > 100 µM | > 100 µM | > 100 µM | > 100 µM | > 100 µM | > 100 µM | > 100 µM | > 100 µM | > 100 µM | > 100 µM | > 100 µM | > 100 µM | > 100 µM | > 100 µM |
| N#CC1=C(N)N(c2ccccc2)C(c2ccccc2)C1(C#N)C#N (stereo not drawn) | 33.7 µM | 31.1 µM | 33.5 µM | 35.6 µM | 40.5 µM | 30.9 µM | 30.2 µM | 34.8 µM | 36.8 µM | 45.2 µM | 78.4 µM | 32.6 µM | 40.3 µM |  | 43.2 µM | 45.3 µM | 55.4 µM | 37.3 µM | 34.9 µM |
| CC(=O)OCC1OC(n2c3c(cc(C#N)c2=S)CCCCC3)C(OC(C)=O)C(OC(C)=O)C1OC(C)=O (stereo not drawn) | > 100 µM | > 100 µM | > 100 µM | > 100 µM | > 100 µM | > 100 µM | > 100 µM | > 100 µM | > 100 µM | > 100 µM |  | > 100 µM | > 100 µM | > 100 µM | > 100 µM | > 100 µM | > 100 µM | > 100 µM | > 100 µM |
| CN1[C@@H]2C[C@@H](OC(=O)[C@H](CO)c3ccccc3)C[C@H]1[C@@H]1O[C@@H]12 | > 100 µM | > 100 µM | > 100 µM | > 100 µM | > 100 µM | > 100 µM | > 100 µM | > 100 µM | > 100 µM | > 100 µM | > 100 µM | > 100 µM | > 100 µM |  |  | > 100 µM |  | > 100 µM | > 100 µM |
| CC(C)NC(=O)OCCN=c1c2ccccc2ccc2ccccc12 | 62.5 µM | > 100 µM | > 100 µM | > 100 µM | 80.6 µM | > 100 µM | > 100 µM | 64.4 µM | > 100 µM | > 100 µM | > 100 µM | > 100 µM | 72.5 µM | > 100 µM | > 100 µM | > 100 µM | > 100 µM | > 100 µM |  |
| CCN1CCC(O)(/C=C/c2ccc(C)cc2C)C(C(=O)/C=C/c2ccc(C)cc2C)C1 (stereo not drawn) | 7.8 µM | 10.9 µM | 5.08 µM | 7.95 µM | 7.94 µM |  | 5.44 µM | 6.66 µM | 8.54 µM | 11.1 µM | 26.7 µM | 3.32 µM | 9.17 µM | 3.32 µM | 20.3 µM | 7.31 µM | 9.12 µM | 14.7 µM | 3.73 µM |
